How the values were obtained:
[1] = system: Sinapis alba, Chrysanthemum segetum, Avena sativa, Stellaria media, Alopecurus myosuroides and Lolium multiflorum; assay: Herbicidal action, pre-emergence (greenhouse pot test); type: in vivo; settings: applied pre-emergence, 0.3 kg and less of active substance per hectare; rated visually after 3 to 4 weeks vs untreated controls
Excerpt: Seeds or pieces or rhizome of mono- and dicotyledon weed plants were laid out in sandy loam soil in plastic pots and covered with soil. The compounds according to the invention, formulated in the form of wettable powders or emulsion concentrates, were then applied to the surface of the covering soil as an aqueous suspension or emulsion in various dosages, with an amount of water applied, when converted, of 600 to 800 l/ha.
After the treatment, the pots were placed in a greenhouse and kept under good growth conditions for the weeds. The plant damage or emergence damage was rated visually after emergence of the test plants after a test period of 3 to 4 weeks in comparison with untreated controls.

[2] = system: Sinapis alba, Stellaria media, Alopecurus myosuroides and Lolium multiflorum, Chrysanthemum segetum and Avena sativa; assay: Herbicidal action, post-emergence (greenhouse pot test); type: in vivo; settings: applied postemergence in three-leaf stage, 0.3 kg or less of active substance per hectare; rated visually after about 3 to 4 weeks vs untreated controls
Experimental: Seeds or pieces of rhizome of mono- and dicotyledon weeds were laid out in sandy loam soil in plastic pots, covered with soil and grown in a greenhouse under good growth conditions. Three weeks after sowing, the test plants were treated in the three-leaf stage.
The compounds according to the invention, formulated as wettable powders or as emulsion concentrates, were sprayed onto the green parts of plants in various dosages with an amount of water applied of, when converted, 600 to 800 l/ha, and after the test plants had stood in a greenhouse for about 3 to 4 weeks under optimum growth conditions, the action of the preparations was rated visually in comparison with untreated controls. The compositions according to the invention also show a good herbicidal activity against a broad spectrum of economically important graminaceous weeds and broad-leafed weeds when applied post-emergence.

| SMILES | herbicidal action, pre-emergence [1] | herbicidal action, post-emergence [2] | melting point |
| --- | --- | --- | --- |
| COc1nc(NC(=O)NS(=O)(=O)c2cc(NC(=O)C(F)(F)F)ccc2C(=O)N(C)C)nc(OC)n1 [44 from Table 1] | very good herbicidal action | very good herbicidal action |  |
| COC(=O)Nc1ccc(C(=O)N(C)C)c(S(=O)(=O)NC(=O)Nc2nc(Cl)cc(OC)n2)c1 [55 from Table 1] | very good herbicidal action | very good herbicidal action |  |
| COc1cc(OC)nc(NC(=O)NS(=O)(=O)c2cc(NC(C)=O)ccc2C(=O)N(C)C)n1 [15 from Table 1] | very good herbicidal action | very good herbicidal action |  |
| COc1cc(OC)nc(NC(=O)NS(=O)(=O)c2cc(NC(=O)OCCCl)ccc2C(=O)N(C)C)n1 [65 from Table 1] | very good herbicidal action | very good herbicidal action |  |
| COC(=O)Nc1ccc(C(=O)N(C)C)c(S(=O)(=O)[N-]C(=O)Nc2nc(OC)cc(OC)n2)c1.[Na+] [21 from Table 2] | very good herbicidal action |  |  |
| COc1cc(OC)nc(NC(=O)[N-]S(=O)(=O)c2cc(NC(=O)C(F)(F)F)ccc2C(=O)N(C)C)n1.[Na+] [17 from Table 2] | very good herbicidal action |  |  |
| CNS(=O)(=O)Nc1ccc(C(=O)N(C)C)c(S(=O)(=O)NC(=O)Nc2nc(OC)cc(OC)n2)c1 [87 from Table 1] | very good herbicidal action | very good herbicidal action |  |
| COc1cc(OC)nc(NC(=O)NS(=O)(=O)c2cc(NS(C)(=O)=O)ccc2C(=O)N(C)C)n1 [77 from Table 1] | very good herbicidal action | very good herbicidal action |  |
| COc1cc(OC)nc(NC(=O)NS(=O)(=O)c2cc(NC=O)ccc2C(=O)N(C)C)n1 [8 from Table 1] | very good herbicidal action | very good herbicidal action |  |
| COc1cc(OC)nc(NC(=O)[N-]S(=O)(=O)c2cc(NC(C)=O)ccc2C(=O)N(C)C)n1.[Na+] [7 from Table 2] | very good herbicidal action |  |  |
| CCN(C)C(=O)c1ccc(NC=O)cc1S(=O)(=O)NC(=O)Nc1nc(OC)cc(OC)n1 [116 from Table 1] | very good herbicidal action | very good herbicidal action |  |
| COC(=O)Nc1ccc(C(=O)N(C)C)c(S(=O)(=O)[N-]C(=O)Nc2nc(Cl)cc(OC)n2)c1.[Na+] [Example 22 from Table 2] |  | very good herbicidal action |  |
| COc1cc(OC)nc(NC(=O)[N-]S(=O)(=O)c2cc(NC(C)=O)ccc2C(=O)N(C)C)n1.[Na+] [Example 7 from Table 2] |  | very good herbicidal action |  |
| COc1cc(OC)nc(NC(=O)[N-]S(=O)(=O)c2cc(NC(=O)C(C)C)ccc2C(=O)N(C)C)n1.[Na+] [Example 16 from Table 2] |  | very good herbicidal action |  |
| COC(=O)Nc1ccc(C(=O)N(C)C)c(S(=O)(=O)NC(=O)Nc2nc(OC)cc(OC)n2)c1.[Na] [Example 21 from Table 2, N-[(4,6-dimethoxypyrimidin-2-yl)-aminocarbonyl]-2-dimethylaminocarbonyl-5-methoxycarbonylamino-benzenesulfonamide sodium salt] |  | very good herbicidal action | 187 to 191 °C (dec.) |
| COc1cc(OC)nc(NC(=O)NS(=O)(=O)c2cc(NC(=O)C3CC3)ccc2C(=O)N(C)C)n1 [115 from Table 1] | very good herbicidal action | very good herbicidal action |  |
| COc1cc(OC)nc(NC(=O)NS(=O)(=O)c2cc(NC=O)ccc2C(=O)N(C)C)n1.[Na] [Example 1 from Table 2, N-[(4,6-dimethoxypyrimidin-2-yl)-aminocarbonyl]-2-dimethylaminocarbonyl-5-formylamino-benzenesulfonamide sodium salt] |  | very good herbicidal action |  |
| CCOC(=O)Nc1ccc(C(=O)N(C)C)c(S(=O)(=O)[N-]C(=O)Nc2nc(OC)cc(OC)n2)c1.[Na+] [Example 26 from Table 2] |  | very good herbicidal action |  |

| SMILES | herbicidal action, pre-emergence [1] | herbicidal action, post-emergence [2] | melting point |
| --- | --- | --- | --- |
| COc1cc(OC)nc(NC(=O)[N-]S(=O)(=O)c2cc(NC(=O)C(C)C)ccc2C(=O)N(C)C)n1.[Na+] [16 from Table 2] | very good herbicidal action |  |  |
| COC(=O)Nc1ccc(C(=O)N(C)C)c(S(=O)(=O)[N-]C(=O)Nc2nc(C)nc(OC)n2)c1.[Na+] [Example 20 from Table 2] |  | very good herbicidal action |  |
| COc1cc(OC)nc(NC(=O)[N-]S(=O)(=O)c2cc(NC=O)ccc2C(=O)N(C)C)n1.[Na+] [1 from Table 2] | very good herbicidal action |  |  |
| COc1cc(OC)nc(NC(=O)[N-]S(=O)(=O)c2cc(NC(=O)C(F)(F)F)ccc2C(=O)N(C)C)n1.[Na+] [Example 17 from Table 2] |  | very good herbicidal action |  |
| COc1cc(OC)nc(NC(=O)NS(=O)(=O)c2cc(NC(=O)C(C)(C)C)ccc2C(=O)N(C)C)n1 [30 from Table 1] | very good herbicidal action | very good herbicidal action |  |
| CCC(=O)Nc1ccc(C(=O)N(C)C)c(S(=O)(=O)NC(=O)Nc2nc(OC)cc(OC)n2)c1 |  |  | 135 to 140 °C (dec.) |
| COc1cc(OC)nc(NC(=O)NS(=O)(=O)c2cc(NC(=O)C(C)C)ccc2C(=O)N(C)C)n1 [25 from Table 1] | very good herbicidal action | very good herbicidal action |  |
| COC(=O)Nc1ccc(C(=O)N(C)C)c(S(=O)(=O)NC(=O)Nc2nc(C)nc(OC)n2)c1 [58 from Table 1] | very good herbicidal action | very good herbicidal action |  |
| CCOC(=O)Nc1ccc(C(=O)N(C)C)c(S(=O)(=O)[N-]C(=O)Nc2nc(OC)cc(OC)n2)c1.[Na+] [26 from Table 2] | very good herbicidal action |  |  |
| CCC(=O)Nc1ccc(C(=O)N(C)C)c(S(=O)(=O)NC(=O)Nc2nc(OC)cc(OC)n2)c1.[Na] [Example 12 from Table 2, N-[(4,6-dimethoxypyrimidin-2-yl)-aminocarbonyl]-2-dimethylaminocarbonyl-5-propionylamino-benzenesulfonamide sodium salt] |  | very good herbicidal action | 212 °C (dec.) |
| COC(=O)Nc1ccc(C(=O)N(C)C)c(S(=O)(=O)[N-]C(=O)Nc2nc(C)nc(OC)n2)c1.[Na+] [20 from Table 2] | very good herbicidal action |  |  |
| COC(=O)Nc1ccc(C(=O)N(C)C)c(S(=O)(=O)[N-]C(=O)Nc2nc(Cl)cc(OC)n2)c1.[Na+] [22 from Table 2] | very good herbicidal action |  |  |
| CCC(=O)Nc1ccc(C(=O)N(C)C)c(S(=O)(=O)NC(=O)Nc2nc(OC)cc(OC)n2)c1 [22 from Table 1] | very good herbicidal action | very good herbicidal action |  |
| CCNC(=O)Nc1ccc(C(=O)N(C)C)c(S(=O)(=O)NC(=O)Nc2nc(OC)cc(OC)n2)c1 [72 from Table 1] | very good herbicidal action | very good herbicidal action |  |
| COC(=O)Nc1ccc(C(=O)N(C)C)c(S(=O)(=O)NC(=O)Nc2nc(OC)cc(OC)n2)c1 [53 from Table 1] | very good herbicidal action | very good herbicidal action |  |
| COc1cc(C)nc(NC(=O)NS(=O)(=O)c2cc(NC(=O)C(F)(F)F)ccc2C(=O)N(C)C)n1 [40 from Table 1] | very good herbicidal action | very good herbicidal action |  |
| CCOC(=O)Nc1ccc(C(=O)N(C)C)c(S(=O)(=O)NC(=O)Nc2nc(OC)cc(OC)n2)c1 [59 from Table 1] | very good herbicidal action | very good herbicidal action |  |

— patent US6498253B1, “Acylated aminophenylsulfonylureas, processes for their preparation and their use as herbicides and plant growth regulators” (priority 1994, dated 2002)
